Assays:
[1] = molecular target: T1, HOP-(1-543), full-length human HSP70/HSP90-organizing protein (Homo sapiens, UniProt P31948); test: protection from TPCK-trypsin digestion, SDS-PAGE; assay type: binding; conditions: 25 mM HEPES-KOH pH 7.4, 5 mM MgCl2, 100 mM KCl, 37 °C, 30 min
T1 construct: gene STIP1; full-length 1-543, His6-tagged (pCold I), E. coli BL21, Ni-NTA and Superdex 200; monomer

[2] = molecular target: T1, HOP-(1-543), full-length human HSP70/HSP90-organizing protein; test: 1H NMR titration (ATP H2/H8 shifts), non-linear fit; assay type: binding
[3] = molecular target: T2, HOP-(1-359), TPR1-TPR2A (ATPase domain) (Homo sapiens, UniProt P31948); test: 1H NMR chemical shift change (protein amide region); assay type: binding; conditions: 20 mM potassium phosphate pH 6.5, 50 mM KCl, 5 mM MgCl2, 25 °C, 10-fold molar excess ATP
T2 construct: gene STIP1; TPR1-DP1-TPR2A segment, residues 1-359, His6-tagged (pCold I), E. coli BL21

[4] = molecular target: T3, HOP-(1-543), full-length human HSP70/HSP90-organizing protein (Homo sapiens, UniProt P31948, D186A); test: ATP hydrolysis rate versus ATP concentration; assay type: biochemical; conditions: 25 mM HEPES-KOH pH 7.4, 5 mM MgCl2, 50 mM KCl, 37 °C
T3 construct: gene STIP1; full-length 1-543, His6-tagged (pCold I), E. coli BL21, Ni-NTA and Superdex 200; monomer
T3 sequence (P31948 whole entry D186A): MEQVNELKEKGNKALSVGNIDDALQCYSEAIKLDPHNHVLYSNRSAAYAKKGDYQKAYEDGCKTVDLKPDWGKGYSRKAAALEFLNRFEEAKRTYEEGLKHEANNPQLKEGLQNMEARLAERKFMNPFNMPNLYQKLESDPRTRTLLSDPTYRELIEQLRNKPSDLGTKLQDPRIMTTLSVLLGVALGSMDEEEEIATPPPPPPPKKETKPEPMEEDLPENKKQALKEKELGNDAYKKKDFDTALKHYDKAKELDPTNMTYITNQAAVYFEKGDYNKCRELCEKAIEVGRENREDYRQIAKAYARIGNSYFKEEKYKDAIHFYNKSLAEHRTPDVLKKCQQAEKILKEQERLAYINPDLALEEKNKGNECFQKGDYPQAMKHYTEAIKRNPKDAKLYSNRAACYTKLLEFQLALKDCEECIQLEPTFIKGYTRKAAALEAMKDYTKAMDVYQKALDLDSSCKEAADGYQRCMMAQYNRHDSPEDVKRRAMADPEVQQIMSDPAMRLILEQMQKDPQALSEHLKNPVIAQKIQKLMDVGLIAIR

T1 sequence (P31948 whole entry): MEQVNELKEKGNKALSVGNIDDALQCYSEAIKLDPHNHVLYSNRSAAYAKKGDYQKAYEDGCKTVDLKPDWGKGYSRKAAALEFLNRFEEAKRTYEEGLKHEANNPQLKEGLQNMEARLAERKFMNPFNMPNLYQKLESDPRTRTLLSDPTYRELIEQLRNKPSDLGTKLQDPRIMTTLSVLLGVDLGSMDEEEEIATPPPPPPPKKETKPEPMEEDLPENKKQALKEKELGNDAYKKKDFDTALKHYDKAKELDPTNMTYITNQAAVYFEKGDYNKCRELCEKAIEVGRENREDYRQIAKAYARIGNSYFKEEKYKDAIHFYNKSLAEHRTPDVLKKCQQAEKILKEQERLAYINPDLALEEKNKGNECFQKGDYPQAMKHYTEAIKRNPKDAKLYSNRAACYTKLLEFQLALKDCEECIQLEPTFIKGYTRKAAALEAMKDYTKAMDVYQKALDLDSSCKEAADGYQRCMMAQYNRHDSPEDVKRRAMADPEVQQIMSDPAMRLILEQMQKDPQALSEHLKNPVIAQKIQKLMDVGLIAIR
T2 sequence (P31948 1-359): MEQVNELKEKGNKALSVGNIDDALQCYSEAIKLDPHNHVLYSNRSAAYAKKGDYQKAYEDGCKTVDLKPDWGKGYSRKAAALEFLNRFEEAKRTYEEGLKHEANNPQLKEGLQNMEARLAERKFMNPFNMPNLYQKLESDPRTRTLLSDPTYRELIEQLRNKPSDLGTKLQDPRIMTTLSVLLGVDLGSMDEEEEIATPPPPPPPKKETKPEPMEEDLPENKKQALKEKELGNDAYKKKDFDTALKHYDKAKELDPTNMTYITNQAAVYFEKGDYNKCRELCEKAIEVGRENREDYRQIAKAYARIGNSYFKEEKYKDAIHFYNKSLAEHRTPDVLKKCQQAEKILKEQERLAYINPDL

SMILES	protection efficiency at 5 mM [1]	Kd [2]	1H NMR chemical shift change (protein amide region) [3]	ATP hydrolysis rate versus ATP concentration [4]
Nc1ncnc2c1ncn2[C@@H]1O[C@H](COP(=O)(O)OP(=O)(O)O)[C@@H](O)[C@H]1O [ADP]	31.0 ± 8.9%	–	–	–
Nc1ncnc2c1ncn2[C@@H]1O[C@H](COP(=O)(O)OP(=O)(O)NP(=O)(O)O)[C@@H](O)[C@H]1O [AMP-PNP, adenosine 5′-(β,γ-imino)triphosphate]	28.6 ± 10.1%	–	–	–
Nc1ncnc2c1ncn2[C@@H]1O[C@H](COP(=O)(O)OP(=O)(O)OP(=O)(O)O)[C@@H](O)[C@H]1O [ATP]	–	350 µM	These data indicated that ATP directly binds the ATPase domain of HOP	this mutation caused no significant change in ATPase activity

Reference: article PMC3975032, “ATPase Activity and ATP-dependent Conformational Change in the Co-chaperone HSP70/HSP90-organizing Protein (HOP)” (The Journal of Biological Chemistry, 2014)
